In general, viability refers to the share of living cells, or the viability signal relative to a control. Read a high viability as better survival. Usually IC50 stands for the concentration that gives 50% inhibition. Low values mean higher potency, high ones lower potency.

The test system of one data set is Caco-2 cells. Put plainly: MTT cell viability assay in Caco-2 cells. The data set is classed as cell-based. The conditions noted are these: even at 100 µM, 24 h incubation. On the procedure: (§1) Caco-2 cells were obtained from the Korean Cell Line Bank (Seoul, Korea). The cells were maintained in Dulbecco’s modified Eagle’s medium (DMEM) supplemented with 10% fetal bovine serum, 1% non-essential amino acids, and 100 U/mL penicillin and gentamicin at 37 °C in a humidified 5% CO2 atmosphere.
(§2) The effect of LC478 on cell viability was assessed by an MTT assay. LC478 was dissolved in diluted in 100% dimethyl sulfoxide (DMSO) and diluted with cell culture media. Caco-2 cells were seeded in 96-well plates at 1 × 10^5 cells/mL. A 100 μL of LC478 in cell culture media was treated on the plates to achieve final concentration of LC478 in the ranges of 0.001 to 100 μM, which was incubated for 24 h. After adding 10 μL/well of MTT ([…]) and incubating them for 24 h, the supernatants of the cultures were removed and replaced with 100 μL of DMSO. The cell viability rate (%) was calculated as the absorbance of treated cells divided by that of control cells. The viability of the control cells was defined as 100%.
On the technique in general: Tetrazolium dyes change colour on reduction, which living cells bring about.

Data set [1] is described as follows: MTT cell viability assay in Caco-2 cells. The data set is classed as cell-based. The conditions noted are these: human; Caco-2 cells, 0.001 to 100 µM, 24 h, MTT. On the procedure:
as §1, §2

Data set [2] is described as follows: Disappearance of docetaxel in rat hepatic microsomes with LC478. The data set is classed as in vitro ADME. The conditions noted are these: rat hepatic microsomes, LC478 1, 5, 10 µM. The procedure:
(§3) The hepatic and intestinal microsomes were prepared based on a similar reported method.
(§4) Adding 0.1 M phosphate buffer (pH 7.4) adjusted the total volume as 0.5 mL, and then the components were incubated at 37 °C using a thermomixer at 500 opm. After incubation of 15 and 30 min for the hepatic and intestinal microsomes, respectively, 1 mL of acetonitrile with 5 µg/mL of paclitaxel as an internal standard added to terminate the reaction.
(§5) The unweighted kinetic data from rat hepatic and intestinal microsomes were fitted using a single-site Michaelis–Menten Equation V = Vmax × [S]/(Km + [S])(4) where [S] is the substrate concentration, Vmax is maximal velocity, and Km is substrate concentration for half-maximal velocity. The CLint was calculated by dividing the Vmax by the Km.

A further data set addresses T1, P-gp (Homo sapiens, UniProt P08183).
T1 construct: They were allowed to grow to confluence for 5 days to obtain higher expressions of P-gp; endogenous in cells; host or cells: Caco-2
Put plainly: Intracellular accumulation of docetaxel in Caco-2 cells (P-gp inhibition). It counts as cell-based.

Data set [3] in a line: LC478 concentration in intestine after oral administration and [I]/IC50 prediction. The conditions noted are these: our unpublished data. The data set is classed as in vivo. On the procedure: Concentration of LC478 was determined using a HPLC-UV system. A 50 µL aliquot of acetonitrile was added to a 50 µL aliquot of biological sample. After vortex-mixing and centrifugation, the supernatant was evaporated (Dry Thermo Bath MG-2200, Eyela, Tokyo, Japan) under a soft stream of nitrogen gas at 50 °C. The residue was reconstituted in 60 µL mobile phase and a 50 µL aliquot of the supernatant was loaded onto a reverse-phase C18 column (SunFireTM; 150 mm. ℓ. × 4.6 mm. i.d.; particle size, 5 µm; Waters, Milford, MA, USA). […]. The retention time of LC478 was approximately 7.8 min, and the quantitation limit was 0.1 µg/mL.

In data set [4] the test system is P-gp overexpressing MES-SA/DX5 sarcoma cells. The conditions noted are these: cited from earlier work.
A short description of data set [5]: Rat plasma protein binding of docetaxel by equilibrium dialysis. It counts as in vitro ADME. The conditions noted are these: LC478 0.1 and 10 μg/mL. On the procedure: A 1 mL of the plasma was dialyzed against 1 mL of isotonic Sørensen phosphate buffer (pH 7.4) containing 3% dextran (w/v) in a dialysis cell (Spectrum Medical Industries, Laguna Hills, CA, USA) using a Spectra/Por 4 membrane (mol. wt. cutoff 12−14 KDa; Spectrum Medical Industries, USA).

Data set [6] in a line: Disappearance of docetaxel in rat intestinal microsomes with LC478. The conditions noted are these: rat intestinal microsomes, LC478 1, 5, 10 µM. The data set is classed as in vitro ADME. On the procedure: as §3, §4, §5

T1 sequence (P08183 whole entry): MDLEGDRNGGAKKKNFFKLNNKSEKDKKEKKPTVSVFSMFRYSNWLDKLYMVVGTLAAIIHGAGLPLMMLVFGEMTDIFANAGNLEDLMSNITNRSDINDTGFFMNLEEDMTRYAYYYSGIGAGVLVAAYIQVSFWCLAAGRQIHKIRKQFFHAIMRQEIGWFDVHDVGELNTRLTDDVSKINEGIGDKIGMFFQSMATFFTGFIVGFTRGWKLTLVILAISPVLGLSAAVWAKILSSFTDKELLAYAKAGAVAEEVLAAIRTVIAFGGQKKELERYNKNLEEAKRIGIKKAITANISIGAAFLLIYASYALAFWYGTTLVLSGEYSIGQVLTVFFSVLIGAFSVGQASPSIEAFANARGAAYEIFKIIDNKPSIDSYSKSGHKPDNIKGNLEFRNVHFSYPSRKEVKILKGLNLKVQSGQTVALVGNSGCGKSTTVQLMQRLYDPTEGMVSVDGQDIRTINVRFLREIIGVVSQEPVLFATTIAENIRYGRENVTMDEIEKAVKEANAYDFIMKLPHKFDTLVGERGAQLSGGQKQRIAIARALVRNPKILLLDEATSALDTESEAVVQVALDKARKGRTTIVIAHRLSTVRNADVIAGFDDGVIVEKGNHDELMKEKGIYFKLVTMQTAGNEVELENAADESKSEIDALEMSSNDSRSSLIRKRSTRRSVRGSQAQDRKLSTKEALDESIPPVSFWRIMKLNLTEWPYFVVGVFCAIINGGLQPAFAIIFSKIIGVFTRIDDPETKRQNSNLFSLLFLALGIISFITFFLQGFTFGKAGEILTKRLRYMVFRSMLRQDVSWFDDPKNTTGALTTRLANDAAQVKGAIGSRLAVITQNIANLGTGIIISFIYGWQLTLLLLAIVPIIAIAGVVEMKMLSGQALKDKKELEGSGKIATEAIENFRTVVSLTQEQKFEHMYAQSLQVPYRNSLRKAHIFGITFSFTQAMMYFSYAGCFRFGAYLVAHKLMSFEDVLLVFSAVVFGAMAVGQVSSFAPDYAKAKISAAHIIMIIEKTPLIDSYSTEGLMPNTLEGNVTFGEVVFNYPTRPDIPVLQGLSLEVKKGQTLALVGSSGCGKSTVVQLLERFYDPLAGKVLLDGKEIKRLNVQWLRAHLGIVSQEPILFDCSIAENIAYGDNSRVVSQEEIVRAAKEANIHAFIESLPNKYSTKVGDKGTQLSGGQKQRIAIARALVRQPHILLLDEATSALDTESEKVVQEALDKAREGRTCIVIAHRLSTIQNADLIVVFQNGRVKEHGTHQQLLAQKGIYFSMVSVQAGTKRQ

`COC(=O)c1cccc(NC(=O)COc2ccc(C34CC5CC(CC(C(=O)N6CCN(Cc7ccc(C(F)(F)F)cc7)CC6)(C5)C3)C4)cc2)c1` [LC478]: in the data set with Caco-2 cells, the “toxicity to Caco-2 cells” value is on record as “not toxic”. The molecule also yielded a viability at 24 h in data set [1] of 97 to 100%. In addition, in data set [2], the “effect on hepatic metabolism of docetaxel” value is “not inhibited”. Besides, it took 601 nM to reach half-maximal inhibition against P-gp (IC50). The “LC478 concentration in the intestine” value in data set [3] (after oral administration of 30 mg/kg LC478) was 3.25 to 5.18 µM. Further, in data set [3] (after oral administration of 100 mg/kg LC478), the “LC478 concentration in the intestine” value is 9.37 to 12.3 µM. In addition, in data set [4], the “effect on P-gp mediated efflux of paclitaxel” value is reported as “reversed P-gp mediated efflux activity” and the intrinsic cytotoxicity entry is given as “without intrinsic cytotoxicity”. Moreover, the “effect on protein binding of docetaxel in rat plasma” value in data set [5] is “did not affect”. The “effect on intestinal metabolism of docetaxel” value in data set [6] is on record as “not inhibited”.

The record behind these values is PMC6471177 (Pharmaceutics, 2019).
